Experimental findings from article PMC5224518, “Hydrophobic mismatch demonstrated for membranolytic peptides, and their use as molecular rulers to measure bilayer thickness in native cells” (Scientific Reports, 2015) are described below.

Read-outs that look alike come from different tables or passages of the source. Ends that are not written are not given here. Bounds are passed on as bounds.

Data set [1] has as its system Enterococcus faecalis (DSM 2570). The format is cell-based. How it is done: (§1) Antimicrobial activity was measured by a standard MIC assay, carried out with Gram-positive Staphylococcus aureus (DSM 1104) and Enterococcus faecalis (DSM 2570) and with Gram-negative Escherichia coli (DSM 1103) and Pseudomonas aeruginosa (DSM 1117), as previously reported. Briefly, bacteria were grown in Müller-Hinton medium at 37°C overnight. Microtiter plates (96 wells of 100 μL) were filled with 50 μL of Müller-Hinton medium, and serial 2-fold dilutions of peptides were arranged in quadruple. The two final rows of each plate remained without peptide, so that the penultimate data point served as the positive control (no peptide), and the final one as the negative control (not inoculated). 50 μL of bacterial suspension (OD = 0.2) was added to the wells (except for the final row of each plate) to give a final concentration of 10^6 colony-forming units (CFU)/mL.

The test system of data set [2] is Staphylococcus aureus (DSM 1104). The format is cell-based. How it is done:
as §1

Data set [3] relates to Escherichia coli (DSM 1103). The format is cell-based. How it is done:
as §1

For data set [4], the system named is Pseudomonas aeruginosa (DSM 1117). Type of data set: cell-based. How it is done: as §1
The nature of data set [5]: Circular dichroism, secondary structure deconvolution (CONTIN-LL). Type of data set: physicochemical. The settings on record: CD, P/L 1:50, 30 μM peptide, 30°C; for Helicity: DMPC/DMPG (3:1) small unilamellar vesicles, 10 mM phosphate buffer pH 7, minimum helical content; for Percentage of secondary structure element: α-helix: DMPC/DMPG (3:1) vesicles. The protocol:
CD samples were prepared by co-solubilizing DMPC and DMPG (3:1 mol/mol) in chloroform/methanol 3:1 (v/v). After drying, the lipid film was dispersed in phosphate buffer (10 mM, pH 7) and homogenized by vortexing. Small unilamellar vesicles (SUVs) for CD samples were generated by sonication in a high-power ultrasonic bath with a beaker-shaped sonotrode (UTR 200, Hielscher, Germany). CD spectra were recorded on a J-815 spectropolarimeter (JASCO, Groß-Umstadt, Germany) between 260 and 185 nm at 0.1-nm intervals, using 1-mm quartz glass cells (Suprasil; Hellma, Müllheim, Germany) at 20°C, as reported previously. The peptides were measured at 20°C in 10 mM sodium phosphate buffer (pH 7.0) and at 30°C in lipid vesicles composed of DMPC/DMPG (3:1). Typical peptide concentrations of the final samples in phosphate buffer was 36–72 μM, and for the vesicle samples 30 μM with a peptide-to-lipid molar ratio (P/L) of 1:50. An averaged baseline of the pure solvent or lipid matrix, respectively, was subtracted. Finally, the spectra were converted to mean residue ellipticities (MRE) by using the weighed-in peptide amount and the volume of the sample for concentration determination. […] Although this ambiguity in peptide concentration leads most probably to an underestimation of the magnitude of the MRE values we attempted a quantitative deconvolution of CD data to estimate the relative contents of different secondary structure elements. If part of the weighted material was not peptide, this leads to an underestimating of the MRE, which also leads to an underestimation of the helical content. The values obtained are thus the minimum helical content of each peptide.
Secondary structure estimation from CD spectra was performed using the CONTIN-LL program, which is based on the ridge regression algorithm. The algorithm is provided by the DICHROWEB on-line server. The quality of the fit between experimental and back-calculated spectrum corresponding to the estimated secondary structure fractions was assessed from the normalized root mean square deviation (NRMSD), with a value <0.1 considered as a good fit[74].

Data set [6] in a line: Vesicle leakage assay (ANTS/DPX fluorescence dequenching). The format is biochemical. The following applies: for percentage of leakage: P/L = 1:12.5, after 10 minutes, 100 μM lipid, 30°C, pH 7.5, relative to Triton X-100 = 100%. The protocol: For the leakage experiments, the buffer in which the vesicles were prepared contained the fluorophor ANTS (12.5 mM), the quencher DPX (45 mM), 50 mM NaCl, and 10 mM HEPES (pH 7.5). Liposomes were prepared by co-dissolving PC/PG 1:1 (mol/mol) mixtures of the lipids with different chain length in CHCl3/MeOH (3:1 v/v), together with 10^−2 mol% Rhod-PE by which the lipid loss during vesicle preparation (extrusion and gel filtration, see below) could be quantified. The peptide-to-lipid ratio (P/L) is given in mol/mol. The lipid mixture was dried under N2(g) and left to dry under vacuum overnight. The obtained thin film was then re-suspended in the buffer which contained the fluorophor and the quencher by vigorous vortexing, followed by 10 freeze-thaw cycles. Large unilamellar vesicles (LUV) were obtained by 21-fold extrusion (Avanti Mini Extruder; Avanti Polar Lipids, Alabaster, AL) of the liposomes through a Nuclepore polycarbonate membrane (pore size 100 nm, Whatman - GE Healthcare Europe, Freiburg, Germany) at a temperature 20°C above the lipid phase transition. Unencapsulated dye was removed by gel filtration using spin columns filled with Sephacryl 100-HR (Sigma-Aldrich, Taufkirchen, Germany), and equilibrated with an elution buffer (150 mM NaCl, 10 mM HEPES, pH 7.5) which balances the internal vesicle osmolarity.
Leakage of entrapped ANTS was monitored by fluorescence dequenching of ANTS[76]. Fluorescence measurements were performed in a thermostatted cuvette with constant stirring at 30°C in the same buffer as used for gel filtration on a FluoroMax2 spectrofluorimeter (HORIBA Jobin Yvon, Unterhaching, Germany) by setting the ANTS emission to 510 nm (5 nm slit) and its excitation to 355 nm (5 nm slit). The vesicles (100 μM lipid final concentration) of the desired composition were added to the cuvette containing the peptide at the P/L ratio to be tested (from 1 mM stock solutions in water). The level of 0% leakage corresponded to the fluorescence of the vesicles immediately after their addition, while 100% leakage was the fluorescence value obtained after addition of a 0.25 vol-% Triton X-100 after 10 min.

[7] abbreviates: DErPC/DErPG 1:1 vesicles (34.4/34.4 Å).
Where [8] appears, read: DErPC/POPG 1:1 vesicles (34.4/27.8 Å).
Setting [9] is: DMoPC/DOPG 1:1 vesicles (hydrophobic thickness 19.2/27.5 Å).
[10] abbreviates: POPC/DErPG 1:1 vesicles (27.1/34.4 Å).
Setting [11] is: POPC/POPG 1:1 vesicles (27.1/27.8 Å).

Consider “KIAGKIAKIAGKIAKIAGKIAKIAGKIA-NH2 [KIA28]”, for which the MIC in data set [1] (DSM 2570, 20 h) came to 5.2 µM; in data set [2] (DSM 1104, 20 h) it was 2.6 µM; in data set [3] (DSM 1103, 20 h) it was 2.6 µM; in data set [4] (DSM 1117, 20 h) it was 5.2 µM.

Take KIAGKIAKIAGKIAKIAGK-NH2 [KIA19]: the MIC is listed as >481 µM in data set [1] (DSM 2570, 20 h); >120 µM in data set [2] (DSM 1104, 20 h); 15 µM in data set [3] (DSM 1103, 20 h); 120 µM in data set [4] (DSM 1117, 20 h).

For the substance KIAGKIAKIAGKIAKIA-NH2 [KIA17], the MIC in data set [1] (DSM 2570, 20 h) is >537 µM; in data set [2] (DSM 1104, 20 h) it was 134 µM; in data set [3] (DSM 1103, 20 h), 17 µM; in data set [4] (DSM 1117, 20 h) it was 134 µM.

Take KIAGKIAKIAGKIAKIAGKIAKIAGK-NH2 [KIA26]: the MIC came to 22 µM in data set [1] (DSM 2570, 20 h); 2.8 µM in data set [2] (DSM 1104, 20 h); 1.4 µM in data set [3] (DSM 1103, 20 h); 5.6 µM in data set [4] (DSM 1117, 20 h).

KIAGKIAKIAGKIAK-NH2 [KIA15]: the Helicity in data set [5] worked out at 69%. In data set [5], the “Percentage of secondary structure element: α-helix” value amounted to 68.7%. The percentage of leakage in data set [6] (setting [7]) is listed as 0%; in data set [6] (setting [8]) it was 3%; in data set [6] (setting [9]), 3%; in data set [6] (setting [10]), 2%; in data set [6] (setting [11]) it was 2%. In data set [6] (POPC/POPG vesicles, P/L = 1:50, time course over 600 s, Triton X-100 = 100%), the leakage is recorded as < 2%. For the same substance, the MIC was >595 µM in data set [1] (DSM 2570, 20 h); >149 µM in data set [2] (DSM 1104, 20 h); >149 µM in data set [3] (DSM 1103, 20 h); >149 µM in data set [4] (DSM 1117, 20 h). Also, the “antimicrobial activity (in words)” value in data set [3] (E. coli DSM 1103, MIC assay) was “completely inactive”.

On to “GMASKAGAIAGKIAKVALKAL-NH2 [PGLa, reference compound]”, for which the MIC in data set [1] (E. faecalis, same assay as Table 2, given in µM) is >477 µM; in data set [2] (S. aureus, same assay as Table 2, given in µM), 30 µM; in data set [3] (E. coli, same assay as Table 2, given in µM), 15 µM; in data set [4] (P. aeruginosa, same assay as Table 2, given in µM) it was 119 µM.

For the substance KIAGKIAKIAGKIAKIAGKIA-NH2 [KIA21], the MIC in data set [1] (DSM 2570, 20 h) was 443 µM; in data set [2] (DSM 1104, 20 h), 3.5 µM; in data set [3] (DSM 1103, 20 h), 1.7 µM; in data set [4] (DSM 1117, 20 h) it was 28 µM.

As for KIAGKIAKIAGKIAKIAGKIAK-NH2 [KIA22], the Helicity in data set [5] was determined as 68%. Further, in data set [5], the “Percentage of secondary structure element: α-helix” value is 67.7%. Besides, the percentage of leakage is recorded as 6% in data set [6] (setting [7]); 85% in data set [6] (setting [8]); 100% in data set [6] (setting [9]); 26% in data set [6] (setting [10]); 100% in data set [6] (setting [11]). Besides, the “kinetics (rate) of leakage” value in data set [6] (POPC/POPG vesicles, P/L = 1:50, time course over 600 s) is “slower kinetics”. In addition, the MIC stood at 414 µM in data set [1] (DSM 2570, 20 h); 6.5 µM in data set [2] (DSM 1104, 20 h); 1.6 µM in data set [3] (DSM 1103, 20 h); 13 µM in data set [4] (DSM 1117, 20 h). The “antimicrobial activity (in words)” value in data set [1] (E. faecalis DSM 2570, MIC assay) is “hardly any activity”; in data set [4] (P. aeruginosa DSM 1117, MIC assay), “somewhat active”.

In the case of KIAGKIAKIAGKIAKIAGKIAKIA-NH2 [KIA24], the MIC was found to be 24 µM in data set [1] (DSM 2570, 20 h); 1.5 µM in data set [2] (DSM 1104, 20 h); 1.5 µM in data set [3] (DSM 1103, 20 h); 6.0 µM in data set [4] (DSM 1117, 20 h).

On to KIAGKIAKIAGKIA-NH2 [KIA14], for which the MIC is >657 µM in data set [1] (DSM 2570, 20 h); >164 µM in data set [2] (DSM 1104, 20 h); >164 µM in data set [3] (DSM 1103, 20 h); >164 µM in data set [4] (DSM 1117, 20 h).
